*1 amine or outer side, *2 acyl side, *3 side chain or, on linkers, in order; H or OH if unused. Where a SMILES comes first, the peptide text is derived from it. The star is where a group is joined. X1 = O=C(CCCC[C@@H]1SC[C@@H]2NC(=O)N[C@@H]21)NCCCOCCOCCOCCCN*; Suc = O=C(CCC(=O)[*:2])[*:1]
How the values were obtained:
PTPN13 PDZ 4 = target: T1, PTPN13 PDZ 4 (Homo sapiens, UniProt Q12923); assay: Holdup assay, PTPN13-4; format: binding; conditions: for BI: PDZ domain PTPN13-4
T1 construct: made in house; host or cells: E. coli
T1 sequence (Q12923 1788-1868 limits assumed): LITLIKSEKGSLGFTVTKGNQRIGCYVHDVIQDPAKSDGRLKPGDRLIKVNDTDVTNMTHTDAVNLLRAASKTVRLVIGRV
Description: The holdup assay was performed on a Tecan freedom Evo200 robot with 384-well plates in singlicate for the three 11-mer PTEN variants and the 13-mer PTEN peptide as described in [31, 32]. Briefly, prior to interaction assay, 2.5 μL of streptavidin resin was saturated in each well with 20 μL of biotinylated PBM peptides (42 μM) and then washed twice with an excess of free biotin, while the reference resin was incubated only with biotin. Right before the holdup experiment, the PDZ library was spiked with an internal standard of lysozyme. Then, the biotin- or PBM-saturated resin was incubated, each in a distinct well of a 384-well plate, with complete cell lysates diluted so that the concentration of the tag-PDZ present in the crude extract is adjusted at 4 μM. After a sufficient time to reach complex equilibrium (15 min.), a fast and mild filtration step is performed and the tag-PDZ concentrations were measured by capillary electrophoresis instrument (LabChip GXII, PerkinElmer, Massachusets, USA). Standard markers were used to convert migration time into molecular weight on the LabChip software and inappropriate molecular weight markers were corrected or excluded.
For filtered data, the BI was extracted with the following equation (Eq 1) that estimates the depleted fraction after superimposition of the sample and reference electropherograms: BI=Iref−Ilig/Iref (1) where Iref and Ilig are the intensities of the tag-PDZ peaks measured, for each PDZ domain/PBM peptide interaction pair, in the biotin reference and the PBM electropherograms, respectively.
BIs were transformed into dissociation constants (KD) using the following formula: KD=([PDZtot]−BI·[PDZtot])·([PBMtot]−BI·[PDZtot])/BI·[PDZtot] (2) where [PDZtot] and [PBMtot] correspond to the total concentrations of the PDZ domain (usually around 4 μM) and the PBM peptide used during the assay. Since the PBMtot concentration in the resin during the holdup assay parameter may differ from one peptide to another and remains unknown, it is impossible to directly convert BI values into KD constants. We systematically determined the KD constants for a subset of PDZ/PBM pairs by competitive FP. […] For each PBM, the average peptide concentration was calculated after outlier rejection based on the absolute distances from the median as compared to three times the standard deviation (3σ rule), with never more than 2 values rejected.

LMO7-1 = assay: Holdup assay, LMO7-1; format: binding, human
SCRIB-3 = target: T2, SCRIB-3 (Homo sapiens, UniProt Q14160); assay: Competitive FP, SCRIB-3; format: binding; conditions: SCRIB-3 + 50 nM f16E6
T2 construct: Representative holdup data recorded for three PDZ domains (MAST2-1, HTRA1-1, SCRIB-3); made in house; host or cells: E. coli
T2 sequence (Q14160 1004-1093 limits assumed): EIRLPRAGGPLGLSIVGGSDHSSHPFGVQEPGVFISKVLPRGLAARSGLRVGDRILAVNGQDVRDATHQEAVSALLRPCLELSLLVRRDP
Description: Protein concentrations were determined by far-UV absorption spectroscopy. A detailed protocol has been published previously.

APBA1-2 = APBA1-2 (Homo sapiens, UniProt Q02410); assay: Holdup assay, APBA1-2; format: binding
CNKSR2-1 = assay: Holdup assay, CNKSR2-1; format: binding, human
GRIP2-2 = assay: Holdup assay, GRIP2-2; format: binding, human
LNX1-4 = LNX1-4 (Homo sapiens, UniProt Q8TBB1); assay: Holdup assay, LNX1-4; format: binding
DLG2-3 = assay: Holdup assay, DLG2-3; format: binding, human
GRID2IP-2 = GRID2IP-2 (Homo sapiens, UniProt A4D2P6); assay: Holdup assay, GRID2IP-2; format: binding
GIPC3-1 = assay: Holdup assay, GIPC3-1; format: binding, human
AHNAK1-1 = assay: Holdup assay, AHNAK1-1; format: binding, human
MAGI1-4 = assay: Holdup assay, MAGI1-4; format: binding, human
LNX1-1 = assay: Holdup assay, LNX1-1; format: binding, human

Chain of LNX1-4 (Q8TBB1 638-723): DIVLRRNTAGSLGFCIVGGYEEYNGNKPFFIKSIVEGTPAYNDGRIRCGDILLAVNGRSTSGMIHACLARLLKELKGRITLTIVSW
Chain of GRID2IP-2 (A4D2P6 whole entry): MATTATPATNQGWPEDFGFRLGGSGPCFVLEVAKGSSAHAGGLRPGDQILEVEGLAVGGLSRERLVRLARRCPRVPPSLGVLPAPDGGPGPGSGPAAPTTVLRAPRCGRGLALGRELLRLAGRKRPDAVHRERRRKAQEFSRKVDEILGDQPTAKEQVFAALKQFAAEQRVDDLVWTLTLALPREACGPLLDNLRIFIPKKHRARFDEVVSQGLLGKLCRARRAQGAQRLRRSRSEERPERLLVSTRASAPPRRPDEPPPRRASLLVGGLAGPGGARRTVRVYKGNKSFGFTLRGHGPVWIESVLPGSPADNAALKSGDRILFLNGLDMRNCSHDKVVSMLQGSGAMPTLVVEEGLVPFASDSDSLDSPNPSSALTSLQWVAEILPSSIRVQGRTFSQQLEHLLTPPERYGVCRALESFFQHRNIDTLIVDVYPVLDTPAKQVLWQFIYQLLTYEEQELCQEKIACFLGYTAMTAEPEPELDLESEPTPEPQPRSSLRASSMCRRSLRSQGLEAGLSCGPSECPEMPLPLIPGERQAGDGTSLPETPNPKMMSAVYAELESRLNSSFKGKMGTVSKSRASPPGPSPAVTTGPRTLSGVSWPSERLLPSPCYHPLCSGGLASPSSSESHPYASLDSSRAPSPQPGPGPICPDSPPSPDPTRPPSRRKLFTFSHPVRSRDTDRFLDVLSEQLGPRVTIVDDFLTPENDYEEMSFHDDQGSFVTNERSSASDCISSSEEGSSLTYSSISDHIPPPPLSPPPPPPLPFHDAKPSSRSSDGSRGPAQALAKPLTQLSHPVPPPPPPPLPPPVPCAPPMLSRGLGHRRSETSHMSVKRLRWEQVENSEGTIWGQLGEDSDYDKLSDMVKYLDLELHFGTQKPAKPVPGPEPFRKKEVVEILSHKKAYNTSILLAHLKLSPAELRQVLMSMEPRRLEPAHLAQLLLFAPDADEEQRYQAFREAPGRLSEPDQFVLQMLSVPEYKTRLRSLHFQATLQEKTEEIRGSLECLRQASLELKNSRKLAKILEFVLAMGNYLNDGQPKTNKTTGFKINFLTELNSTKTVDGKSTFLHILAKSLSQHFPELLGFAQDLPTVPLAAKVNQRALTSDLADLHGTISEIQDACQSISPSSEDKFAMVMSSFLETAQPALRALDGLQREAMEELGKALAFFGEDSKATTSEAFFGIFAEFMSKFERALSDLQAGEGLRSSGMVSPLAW
Chain of APBA1-2 (Q02410 747-822): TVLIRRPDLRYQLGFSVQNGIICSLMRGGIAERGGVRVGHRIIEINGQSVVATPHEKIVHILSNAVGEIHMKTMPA

**Q.** With `CC[C@H](C)[C@H](NC(=O)[C@H](CCC(N)=O)NC(=O)[C@@H](NC(=O)[C@H](Cc1c[nH]cn1)NC(=O)[C@H](CCC(N)=O)NC(=O)[C@H](CC(=O)O)NC(=O)[C@H](CCC(=O)O)NC(=O)[C@H](CC(=O)O)NC(=O)CCC(=O)NCCCOCCOCCOCCCNC(=O)CCCC[C@@H]1SC[C@@H]2NC(=O)N[C@@H]21)[C@@H](C)O)C(=O)N[C@H](C(=O)N[C@@H](CCCCNC(C)=O)C(=O)N[C@H](C(=O)O)C(C)C)[C@@H](C)O` [PTEN_Ac] as the molecule, how does the Kd (PTPN13 PDZ 4) read?
**A.** The Kd was 10.4 µM.

**Q.** What about the BI (PTPN13 PDZ 4) of the same molecule?
**A.** The BI was 0.707.

**Q.** And the “binding of PTPN13-4 (in words)” value (PTPN13 PDZ 4; PTPN13-4)?
**A.** The value was “PTPN13-4 binds to PTEN_Ac”.

**Q.** What does the source list for `CC[C@H](C)[C@H](NC(=O)[C@H](CCC(N)=O)NC(=O)[C@@H](NC(=O)[C@H](Cc1c[nH]cn1)NC(=O)[C@H](CCC(N)=O)NC(=O)[C@H](CC(=O)O)NC(=O)[C@H](CCC(=O)O)NC(=O)[C@H](CC(=O)O)NC(=O)CCC(=O)NCCCOCCOCCOCCCNC(=O)CCCC[C@@H]1SC[C@@H]2NC(=O)N[C@@H]21)[C@@H](C)O)C(=O)N[C@H](C(=O)N[C@@H](CCCCN)C(=O)N[C@H](C(=O)O)C(C)C)[C@@H](C)O` [PTEN_11]?
**A.** BI (LMO7-1): -0.045; LogKD (LMO7-1): 3.519; binding by holdup and competitive FP (in words) (SCRIB-3): non-binding

**Q.** How did the BI (APBA1-2) turn out when `CC[C@H](C)[C@H](NC(=O)[C@H](CCC(N)=O)NC(=O)[C@@H](NC(=O)[C@H](Cc1c[nH]cn1)NC(=O)[C@H](CCC(N)=O)NC(=O)[C@H](CC(=O)O)NC(=O)[C@H](CCC(=O)O)NC(=O)[C@H](CC(=O)O)NC(=O)[C@H](Cc1ccccc1)NC(=O)[C@@H]1CCCN1C(=O)CCC(=O)NCCCOCCOCCOCCCNC(=O)CCCC[C@@H]1SC[C@@H]2NC(=O)N[C@@H]21)[C@@H](C)O)C(=O)N[C@H](C(=O)N[C@@H](CCCCN)C(=O)N[C@H](C(=O)O)C(C)C)[C@@H](C)O` [PTEN_13] ({X1-Suc}-PFDEDQHTQITKV-OH) was run?
**A.** The BI was 0.184.

**Q.** And the BI (CNKSR2-1)?
**A.** Its BI is -0.021.

**Q.** What about the BI (GRIP2-2) of the same molecule?
**A.** Its BI is -0.021.

**Q.** What about the BI (LNX1-4) of the same molecule?
**A.** Its BI is 0.378.

**Q.** And the Kd (LNX1-4)?
**A.** The Kd was 25.5 µM.

**Q.** And the BI (DLG2-3)?
**A.** The BI was 0.083.

**Q.** What about the BI (GRID2IP-2) of the same molecule?
**A.** Its BI is -0.012.

**Q.** What about the LogKD (GRID2IP-2) of the same molecule?
**A.** Its LogKD is 3.826.

**Q.** What about the BI (GIPC3-1) of the same molecule?
**A.** Its BI is 0.032.

**Q.** What about the Kd (PTPN13 PDZ 4) of the same molecule?
**A.** Its Kd is 35.8 µM.

**Q.** What about the BI (PTPN13 PDZ 4) of the same molecule?
**A.** The BI was 0.306.

**Q.** What about the BI (AHNAK1-1) of the same molecule?
**A.** Its BI is -0.053.

**Q.** And the BI (MAGI1-4)?
**A.** Its BI is 0.094.

**Q.** And the BI (LNX1-1)?
**A.** The BI was 0.021.

Reference: publication PMC7774954, “Interactomic affinity profiling by holdup assay: Acetylation and distal residues impact the PDZome-binding specificity of PTEN phosphatase” (PLoS ONE, 2020)
